{"source": "patent US12474353B2", "about": "“Methods and materials for assessing and treating obesity” (Mayo Foundation for Medical Education and Research, priority 2017, dated 2025)", "details": "human, in vivo", "protocol": "The applicability of obesity-related phenotypes as actionable biomarkers was tested in three pilot, proof of concept studies (see, e.g., Acosta et al., 2015 Gastroenterology 148:537-546; Acosta et al., 2015 Physiol Rep 3; and Halawi et al., 2017 Lancet Gastroenterol Hepatol 2:890-899). First, in a single-center, randomized, parallel-group, double-blind, placebo-controlled, 14-day study, the effects of Phentermine-topiramate-ER (PhenTop) (7.5/46 mg, orally, daily) on gastric emptying (GE) and volume, satiation, satiety, and fasting and postprandial GI hormones was evaluated in 24 obese adults. […] Subsequently, in a prospective, NIH-funded, randomized, placebo controlled clinical trial to study the effects of liraglutide 3 mg, SQ, over 16 weeks on obesity phenotypes and weight in 40 obese patients. […]\nA prospective, randomized clinical trial with liraglutide, a long-acting GLP-1 receptor agonist, was completed. […] At baseline and after 16 weeks' treatment, weight, gastric emptying of solids (GES, primary endpoint), large fasting gastric volumes, satiation, and satiety were measured. GES was also measured at 5 weeks. […] Effect of liraglutide on GES T1/2 at 5 and 16 weeks in the liraglutide group was analyzed by paired t-test. Seventeen participants were analyzed in the liraglutide group (n=19 randomized) and 18 in the placebo group (n=21 randomized).", "data": [{"smiles": "CCCCCCCCCCCCCCCC(=O)N[C@@H](CCC(=O)NCCCC[C@H](NC(=O)[C@H](C)NC(=O)[C@H](C)NC(=O)[C@H](CCC(N)=O)NC(=O)CNC(=O)[C@H](CCC(=O)O)NC(=O)[C@H](CC(C)C)NC(=O)[C@H](Cc1ccc(O)cc1)NC(=O)[C@H](CO)NC(=O)[C@H](CO)NC(=O)[C@@H](NC(=O)[C@H](CC(=O)O)NC(=O)[C@H](CO)NC(=O)[C@@H](NC(=O)[C@H](Cc1ccccc1)NC(=O)[C@@H](NC(=O)CNC(=O)[C@H](CCC(=O)O)NC(=O)[C@H](C)NC(=O)[C@@H](N)Cc1cnc[nH]1)[C@@H](C)O)[C@@H](C)O)C(C)C)C(=O)N[C@@H](CCC(=O)O)C(=O)N[C@@H](Cc1ccccc1)C(=O)N[C@H](C(=O)N[C@@H](C)C(=O)N[C@@H](Cc1c[nH]c2ccccc12)C(=O)N[C@@H](CC(C)C)C(=O)N[C@H](C(=O)N[C@@H](CCCNC(=N)N)C(=O)NCC(=O)N[C@@H](CCCNC(=N)N)C(=O)NCC(=O)O)C(C)C)[C@@H](C)CC)C(=O)O", "note": "[liraglutide]", "values": [{"measurement": "Nausea (most common adverse event)", "result": 63.2, "unit": "%"}]}]}
